This is an account of results in BindingDB's records for doi:10.1016/0006-2952(92)90616-q (National Institutes of Diabetes and Digestive and Kidney …, 1992).

The target in test [1] is Adenosine receptor A2a (Rattus norvegicus, UniProt P30543).
For test [2], the target named is T1, Adenosine receptor A1 (Rattus norvegicus, UniProt P25099).
T1 sequence (P25099 whole entry): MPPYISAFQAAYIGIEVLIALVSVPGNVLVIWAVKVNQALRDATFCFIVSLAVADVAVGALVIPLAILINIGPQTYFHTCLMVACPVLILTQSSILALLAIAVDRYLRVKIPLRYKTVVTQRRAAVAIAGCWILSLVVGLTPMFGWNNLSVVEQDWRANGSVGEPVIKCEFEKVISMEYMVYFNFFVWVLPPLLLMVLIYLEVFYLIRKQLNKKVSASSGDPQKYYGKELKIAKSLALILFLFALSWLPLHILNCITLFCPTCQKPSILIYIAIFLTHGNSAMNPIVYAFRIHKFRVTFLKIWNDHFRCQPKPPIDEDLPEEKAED

Adenosine receptor A2a, sequence (P30543 whole entry): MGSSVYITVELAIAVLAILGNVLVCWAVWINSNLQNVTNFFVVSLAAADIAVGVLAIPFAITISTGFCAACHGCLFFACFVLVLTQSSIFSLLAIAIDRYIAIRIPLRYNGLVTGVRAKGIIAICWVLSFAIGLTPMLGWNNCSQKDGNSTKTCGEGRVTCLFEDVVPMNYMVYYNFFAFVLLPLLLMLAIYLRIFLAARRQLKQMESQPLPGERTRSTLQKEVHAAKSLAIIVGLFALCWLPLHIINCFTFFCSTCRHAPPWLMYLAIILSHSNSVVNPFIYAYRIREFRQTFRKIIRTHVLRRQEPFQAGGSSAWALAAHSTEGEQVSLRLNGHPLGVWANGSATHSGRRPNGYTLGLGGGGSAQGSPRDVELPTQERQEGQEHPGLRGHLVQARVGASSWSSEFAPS

Compound `OC[C@H]1O[C@@H](n2cnc3c(NC4CCCC4)ncnc32)[C@H](O)[C@@H]1O` displayed a Ki in test [1] of 510 nM. Consider `Nc1nc(F)nc2c1ncn2[C@@H]1O[C@H](CO)[C@@H](O)[C@H]1O` [2-FluoroAdo], for which the Ki worked out at 28 nM in test [1] and 5.9 nM in test [2]. The matching figures for `CSC[C@H]1O[C@@H](n2cnc3c(NC4CCCC4)ncnc32)[C@H](O)[C@@H]1O` [5'-Methylthio Adenosine]: 1180 nM and 243 nM. The matching figures for `CSC[C@H]1O[C@@H](n2cnc3c(NC4CCCC4)nc(F)nc32)[C@H](O)[C@@H]1O` [2-Fluoro-5'-Methylthio Adenosine]: 950 nM and 84 nM. The matching figures for `O[C@@H]1[C@H](O)[C@@H](Cl)O[C@H]1n1cnc2c(NC3CCCC3)ncnc21` [N6-Cyclopentyl-5'chloro Adenosine]: 1360 nM and 0.63 nM. On to `Nc1ncnc2c1ncn2[C@@H]1O[C@H](Cl)[C@@H](O)[C@H]1O` [5'-Chloro Adenosine], for which the inhibition constant (Ki) is 140 nM in test [1] and 20 nM in test [2]. Turning to `CCNC(=O)C1OC(n2cnc3c(NC4CCCCC4)ncnc32)C(O)C1O` (stereo not drawn) [N6-CyclohexylNECA], the inhibition constant Ki in test [1] amounted to 170 nM; in test [2] it was 0.43 nM.

Usually Ki stands for the equilibrium dissociation constant of an inhibitor or competing ligand from its target. Read a low Ki as a stronger hold on the target.
